Laboratory results from patent publication US6358993B1, “Pharmaceutically active nitrogen ring compounds and methods of use thereof” (CeNes Pharmaceuticals, Inc., priority 1996, dated 2002).
Structures can show the parent of a compound that is named as a salt.

What was measured:
DBA/2 mice = experiment: In vivo anticonvulsant activity in the DBA/2 mouse model (mouse audiogenic assay); settings: 30 minutes before auditory stimulus, inhibition relative to vehicle
Description: As discussed above, preferred compounds of the invention in a standard anticonvulsant in vivo audiogenic test, such as the audiogenic mouse assay of Example 48 which follows, where DBA/2 mice about 20-23 days old are injected intraperitoneally with a test compound 30 minutes prior to being placed in a bell jar with exposure to auditory stimulus of 12 KHz sine wave at 110-120 db. References herein in vivo “audiogenic assay” are intended to refer to that protocol. […] As discussed above, activity in the audiogenic assay has been recognized as indicative that a test compound has neuroprotective properties. See, e.g., M. Tricklebank et al., European Journal of Pharmacology, supra; T. Seyfried, Federation Proceedings, supra.
In vivo Anticonvulsant Activity in the DBA/2 Mouse Model (Mouse Audiogenic Assay)
Compounds were tested for their effectiveness in preventing seizures in DBA/2 mice which have a unique sensitivity to auditory stimulation. Exposure to loud high-frequency sounds can trigger seizure activity in these animals. This sensitivity develops from postnatal day 12 and peaks around day 21 and slowly diminishes as the animals mature. The unusual response to auditory stimulation in this strain of mouse is believed to be due to a combination of early myelination (causing an unusually low excitatory threshold) and delayed development of inhibitory mechanisms.
Mice were injected intraperitoneally with the compound specified in Table I below or with vehicle control, 30 minutes prior to being placed in a bell jar and turning on the auditory stimulus (12 KHz sine wave at 110-120 db). Administered doses are specified in Table I as milligram of compound per kilogram bodyweight of mouse. The auditory stimulus was left on for 60 seconds and mice reactions were timed and recorded. “FB” refers to free base.

in vivo models of stroke = settings: cited from earlier work
mouse audiogenic tests = settings: in vivo; cited from earlier work
[1] = in vivo; cited from earlier work

Row | Molecule | Audiogenic Response % Inhib. (DBA/2 mice; dose 10 mg/kg i.p.) [%] | Audiogenic Response % Inhib. (DBA/2 mice; dose 20 mg/kg i.p.) [%] | further results
1 | N=C(Nc1ccc(Cl)c(Cl)c1)N1CCc2ccccc21 [Example 6, N-(3,4-Dichlorophenyl)-1-indolinylcarboximidamide] | 41 | 83 | –
2 | N-(5-Acenaphthyl)-1-(5-methoxy)-1-indolinylcarboximidamide.HCl [Example 7] | 21 | – | –
3 | CCc1cccc2c1N(C(=N)Nc1cccc3ccccc13)CC2 [Example 9, N-(1-Naphthyl)-1-(7-ethyl)-indolinylcarboximidaide] | – | 28 | –
4 | Cc1cccc(NC(=N)N2CCc3ccccc32)c1C.Cl [Example 12, N-(2,3-dimethylphenyl)-1-indolinylcarboximidamide.HCl] | 88 | – | Audiogenic Response % Inhib. (DBA/2 mice; dose 2 mg/kg i.p.): 23%; Audiogenic Response % Inhib. (DBA/2 mice; dose 5 mg/kg i.p.): 67%
5 | N=C(Nc1cccc2ccccc12)N1CCc2ccccc21 [Example 2, N-(1-Naphthyl)-1-indolinylcarboximidamide] | 100 | – | Audiogenic Response % Inhib. (DBA/2 mice; dose 2 mg/kg i.p.): 82%
6 | COc1ccc(NC(=N)N2CCc3ccccc32)c2ccccc12.CS(=O)(=O)O [Example 5, N-(4-Methoxynaphthyl)-1-indolinylcarboxidamide.mesylate] | 68 | 87 | Audiogenic Response % Inhib. (DBA/2 mice; dose 5 mg/kg i.p.): 50%
7 | Cl.N=C(Nc1cccc2ccccc12)N1CCCc2ccc(C(F)(F)F)cc21 [Example 20] | – | – | Audiogenic Response % Inhib. (DBA/2 mice; dose 4 mg/kg i.p.): 13%
8 | N=C(Nc1cccc2ccccc12)N1CCc2ccccc2C1 [N-(1-naphthyl)-1,2,3,4-tetrahydroisoquinolinyl)carboximidamide] | – | 41 | –
9 | Cl.N=C(Nc1cccc2c1CCCC2)N1CCc2ccccc21 [Example 13, N-(5,6,7,8-tetrahydro-1-naphthyl)-1-indolinylcarboximidamide.HCl] | 48 | 80 | –
10 | N=C(N)N1Cc2ccccc2CCc2ccccc21 (as salt: hydrochloride) [Example 41, 5,6,11,12-tetrahydrodibenz[b,f]azocin-carboximidanmide.hydrochloride] | – | – | melting point: 238 to 240 °C
11 | Cl.N=C(Nc1cccc(Cl)c1Cl)N1CCc2ccccc21 [Example 11, N-(2,3-dichiorophenyl)-1-indolinylcarboximidamide.HCl] | 55 | – | –
12 | N=C(Nc1cc(Br)ccc1Br)N1CCCc2ccc(C(F)(F)F)cc21 (as salt: hydrochloride) [Example 35, N-(2,5-dibromophenyl)-(7-trifluoromethyl-1,2,3,4-tetrahydroquinolinyl)carboximidamide Hydrochloride] | – | – | melting point: 201 to 202 °C
13 | Cl.N=C(Nc1cccc2ccccc12)N1CCCc2ccccc21 [Example 21, N-(1-naphthyl)-(1,2,3,4-tetrahydroquinolinyl)carboximidamide.HCl] | – | – | Audiogenic Response % Inhib. (DBA/2 mice; dose 1 mg/kg i.p.): 13%; Audiogenic Response % Inhib. (DBA/2 mice; dose 2 mg/kg i.p.): 62%; Audiogenic Response % Inhib. (DBA/2 mice; dose 4 mg/kg i.p.): 88%
14 | C[C@]12N[C@H](Cc3ccccc31)c1ccccc12 [MK-801] | – | – | results in in vivo models of stroke (in vivo models of stroke): good results; activity in mouse audiogenic tests (mouse audiogenic tests): good activity; toxicity [1]: has shown toxicity
15 | CCc1ccc(Cl)c(NC(=N)N2CCCc3ccc(C(F)(F)F)cc32)c1.Cl [Example 19, N-(2-chloro-5-ethylphenyl)-[(7-trifluoromethyl)-1,2,3,4-tetrahydroquinolinyl]carboximidamiide.HCl] | 44 | 91 | –
16 | Cc1ccc2c(c1)CCCN2C(=N)Nc1cccc2ccccc12.Cl [Example 33, N-(1-naphthyl)-(6-methyl-1,2,3,4-tetrahydroquinolinyl)carboximidamide Hydrochloride] | – | – | Audiogenic Response % Inhib. (DBA/2 mice; dose 4 mg/kg i.p.): 62%
17 | CS(=O)(=O)O.N=C(Nc1ccc(OCc2ccccc2)cc1)N1CCc2ccccc21 [Example 4, N-(4-Benzyloxyphenyl)-1-indolinylcarboximidamide.mesylate] | – | 32 | –
18 | N-(5-Acenaphthyl)-1-(5-bromo)-indolinylcarboximidamide [Example 8] | – | 11 | –
19 | Cc1ccccc1NC(=N)N1Cc2cccc3cccc1c23.Cl [Example 23, N-(2-tolyl)-1-(benz[cd]indolinyl)carboximidamnide.HCl] | – | – | Audiogenic Response % Inhib. (DBA/2 mice; dose 1 mg/kg i.p.): 53%; Audiogenic Response % Inhib. (DBA/2 mice; dose 2 mg/kg i.p.): 61%; Audiogenic Response % Inhib. (DBA/2 mice; dose 4 mg/kg i.p.): 95%
20 | Cc1ccc(C)c(NC(=N)N2Cc3cccc4cccc2c34)c1.Cl [Example 25, N-(2,5-dimethylphenyl)-1-benz[cd]indolinylcarboximidamide.HCl] | 76 | – | Audiogenic Response % Inhib. (DBA/2 mice; dose 5 mg/kg i.p.): 59%
21 | Cl.N=C(Nc1cccc(-c2ccccc2)c1)N1Cc2cccc3cccc1c23 [Example 22, N-(3-biphenyl)-1-(benz[cd]indolinyl)carboximdamide.HCl] | 23 | – | –
22 | N-(2-biphenyl)-1-indolinylcarboximidamide.HCl [Example 14] | – | 56 | –
